This is an account of results in patent EP4653012A1 (Jiangsu Hengrui Pharmaceuticals Co., Ltd., priority 2023, dated 2024).

A short description of series [1]: Pharmacokinetic study in beagles, intravenous administration, plasma by LC/MS/MS. Conditions: 0.5 mg/kg.
Protocol: The pharmacokinetic behavior of the compound of the present disclosure in dogs was studied, and its pharmacokinetic profile was evaluated.
Six male beagles were divided into 2 groups of 3, purchased from Shanghai Medicilon Inc., and subjected to an administration test.
The collected blood samples were each placed in EDTA-K2 anticoagulant blood collection tubes, and the collected whole blood was placed on ice and centrifuged within 1 h to isolate the plasma (centrifugal force: 2200 g, centrifugal time: 10 min, 2-8 °C). Plasma samples were stored in a refrigerator at -80 °C prior to testing.
The content of the test compounds in beagle plasma after the injection was determined: 25 µL of beagle plasma at each time point after the administration was mixed with 50 µL (100 ng/mL) of internal standard solution camptothecin (China National Institutes for Food and Drug Control) and 200 µL of acetonitrile. The mixture was vortexed for 5 min and centrifuged for 10 min (3700 rpm), and 3-4 µL of the supernatant of the plasma sample was taken for LC/MS/MS assay (API4000 triple quadrupole tandem mass spectrometer (No. 2), Applied Biosystems, USA; Shimadzu, LC-30AD ultra high performance liquid chromatography system, Shimadzu, Japan).
For series [2], the system named is SKBR3 tumor cells (HER2+). Nature of the series: In vitro cytotoxic activity screening (CTG assay). Format: cell-based. On the procedure:
(§1) In this experiment, the ATP content was determined using CTG to reflect the survival condition of the tumor cells. […] The killing effect of the toxin molecule was then assayed according to this condition.
(§2) According to the purpose of the experiment, two disease models of breast cancer and NSCLC were selected, and three cell strains of SKBR3 tumor cells (HER2+, ATCC, Cat# HTB-30), MDA-MB-468 (HER2-, ATCC, Cat# HTB-132) and A549 (human non-small cell lung cancer cells, ATCC, Cat# CCL-185) were selected for screening.
(§3) The cells were counted, and 4.3 × 10^5, 7.2 × 10^5 and 11.5 × 10^5 cells were each added to a culture solution to give a final volume of 26 mL. 180 µL of cell suspension was added to each well in columns 2 to 11 of a 96-well plate (Corning, Cat# 3903) to give cell densities of 3K, 5K, and 8K per well. Wells in column 12 were each filled with 200 µL of culture solution and the remaining wells were each filled with PBS. The SKBR3 and MDA-MB-468 cells were subjected to the same operations described above. […] 2 mM stock solution (stock solution diluted 10-fold in DMSO) was prepared in column 1 of drug preparation plate 1, and then 10-fold gradient dilution in DMSO was performed through column 10, and the wells in column 11 were filled with DMSO. 95 µL of corresponding culture solution was added into each well from column 2 to column 11 of the drug preparation plate 2, and 5 µL of solution was pipetted from column 2 to column 11 of drug preparation plate 1 to drug preparation plate 2. The solution was mixed well, and 20 µL of solution was pipetted and added into the plated cells. The cells were then cultured for 3 days and 5 days. • 4) CTG assay (Cell Titer-GloTM, luminescent cell viability assay, Promega): the cell plates were taken out on day 3 and day 5 and equilibrated to room temperature. 90 µL of CTG was added into each well, and the mixture was reacted at room temperature for 10 min in the dark. The luminescence value was read using a microplate reader and IC50 was calculated.

Series [3] concerns A549 (human non-small cell lung cancer cells). Kind of series: In vitro cytotoxic activity screening (CTG assay). Format: cell-based. As for the experimental part: as §1, §2, §3
Another series deals with MDA-MB-468 (HER2-). Nature of the series: In vitro cytotoxic activity screening (CTG assay). Format: cell-based. As for the experimental part: as §1, §2, §3

In series [1] (male, beagle, dog, in vivo, iv), `C=C1C[C@@H]2CC[C@@]34C[C@H]5O[C@H]6[C@@H](O3)[C@H]3O[C@H](CC[C@@H]3O[C@H]6[C@H]5O4)CC(=O)C[C@@H]3[C@@H](OC)[C@@H](C[C@H](O)CN)O[C@H]3C[C@H]3O[C@@H](CC[C@@H]1O2)C[C@@H](C)C3=C` [Eribulin, eribulin, reference compound] displayed a concentration at 5 min of 217 ng/mL.

As a reminder, the IC50 is the concentration that inhibits the measured activity by half. A high value points to lower potency. Turning to `C=C1C[C@@H]2CC[C@@]34C[C@H]5O[C@H]6[C@@H](O3)[C@H]3O[C@H](CC[C@@H]3O[C@H]6[C@H]5O4)CC(=O)C[C@@H]3[C@@H](OC)[C@@H](C[C@@H](CN)OC)O[C@H]3C[C@H]3O[C@@H](CC[C@@H]1O2)C[C@@H](C)C3=C` [Compound 1], the “Plasma concentration C5min” value in series [1] (beagles, intravenous) was 82.1 ng/mL. Further, the half-maximal inhibitory concentration (IC50) in series [2] (Homo sapiens, SK-BR-3) was 0.205 nM; in series [3] (Homo sapiens, A549) it was 0.515 nM; with MDA-MB-468 (HER2-) (Homo sapiens, MDA-MB-468) it was 0.183 nM. In addition, the Maximum inhibition rate is reported as 96.87% in series [2] (SKBR3, CTG); 81.34% in series [3] (A549, CTG); 88.01% in the series with MDA-MB-468 (HER2-) (MDA-MB-468, CTG).
